# Literature values in patent US20070208041A1, “Compositions for the treatment and prevention of heart disease and methods of using same” (priority 2005, published 2007).
# Experiments:
# [1] = tested on: phenylephrine-constricted rat aorta
# [2] = allopurinol alone
Compound,effect of ALDH-2 inhibitor benomyl on vasodilator response [1],outcome of clinical trials [2]
O=[N+]([O-])OCC(CO[N+](=O)[O-])O[N+](=O)[O-] [GTN],"reduced the vasodilator potency, but not the efficacy",
Oc1ncnc2[nH]ncc12 [allopurinol],,not successful
"O=[N+]([O-])O[C@H]1CO[C@H]2[C@@H]1OC[C@H]2O[N+](=O)[O-] [isosorbide dinitrate, 1,4:3,6-dianhydrosorbitol 2,5-dinitrate]",not affected,
"O=[N+]([O-])O[C@@H]1CO[C@H]2[C@@H]1OC[C@@H]2O [isosorbide-5-mononitrate, 1,4:3,6-dianhydrosorbitol 5-mononitrate]",not affected,
O=[N+]([O-])OCC(CO)(CO)CO [pentaerythritol mononitrate],not affected,
